Experimental data taken from patent US20250352603A1, “VALERIAN COMPOSITION FOR SLEEP MANAGEMENT” (OMNIACTIVE HEALTH TECHNOLOGIES LIMITED, priority 2022, published 2025).

Key:
Assay type in all cases: in vivo, mice
[1] = system: serum serotonin, dopamine, melatonin; test: Serum melatonin, serotonin and dopamine by ELISA kits; details: CM: caffeine then 2 mg/kg i.p.
Protocol: (§1) Working solutions of caffeine, melatonin, and valerian were prepared on a daily basis and administered intraperitoneally (i.p.). Based on the previous studies caffeine-induced insomnia is dose-dependent with 7.5 mg/kg i.p. caffeine maintaining wakefulness for at least 2 h. Electrical activity of the brain was monitored for 90 minutes following the caffeine injection and spike frequency/spike amplitude analysis was performed via the Labchart 7.3.3 program. Ninety (90) minutes after the caffeine injection, animals were deeply anesthetized with 4% isofluorane (30% O2, remainder N2O). Brains were rapidly removed, frozen on dry ice and stored at −80° C. for further analysis.
(§2) Serum melatonin, serotonin, and dopamine was measured by ELISA kits. Brain levels of MDA was measured by HPLC. Brain activities of SOD, CAT and GPHx was measured using ELISA kits.

Bax, Bcl-2, Caspase-3 = test: Western blot of brain Bax, Bcl-2 and Caspase-3; details: CM: caffeine then 2 mg/kg i.p.; vs C group
Protocol: as §1
(§3) Protein concentrations were determined using Western blot analysis. 50 μg of protein was electrophoresed on 4-15% Tris-Glycine polyacrylamide gels and transferred to Immobilon-P PVDF membranes, blocked for 1 h in 5% skim milk and incubated overnight at 4° C. with either GABAAR2, GABAB R1, GABAB-R2, 5H-T1A, GluA1, GluN1, GluN2 A, Bcl-2, Bax, and Caspase-3. Membranes were then incubated with horseradish peroxidase (HRP) conjugated IgG secondary antibody. Bands were quantified using Image software and normalized to actin as a loading control.

GluA1, GluN2A, GluN1 = test: Western blot of brain glutamate receptors; details: CM: caffeine then 2 mg/kg i.p.; vs C group
Protocol: as §1, §3

[2] = system: GABAAR2, GABAB R1, GABAB R2, 5-HT1A; test: Western blot of brain GABAergic and serotonergic receptors; details: CM: caffeine then 2 mg/kg i.p.; vs C group
Protocol: as §1, §3

[3] = system: brain tissue MDA, SOD, CAT, GPx; test: Brain oxidative stress markers (MDA by HPLC; SOD, CAT, GPx by ELISA kits); details: CM: caffeine then 2 mg/kg i.p.; vs C group
Protocol: as §1, §2

## COc1ccc2[nH]cc(CCNC(C)=O)c2c1 [Melatonin]
[1]; vs C group
  serum dopamine levels: significant increase
  serum serotonin levels: significant increase
[1]; vs all the other groups
  melatonin levels in serum: significantly higher
Bax, Bcl-2, Caspase-3
  brain Bax: significant increase
  brain Bcl-2: significant decrease
  brain Caspase-3: significant increase
GluA1, GluN2A, GluN1
  brain GluA1 receptors: significant increase
  brain GluN1 receptors: significant increase
  brain GluN2A receptors: significant increase
[2]
  brain 5-HT1A levels: significantly increased
  brain GABAB R1: significant increase
[3]
  brain CAT: significant increase
  brain GPx: significant increase
  brain MDA levels: significant reduction
  brain SOD: significant increase
